Source: US4705799A, “Aminomethyl oxooxazolidinyl benzenes useful as antibacterial agents” (E. I. Du Pont de Nemours and Company, priority 1985, dated 1987)
In brackets after ≈: the same amount, converted by molar mass.

Columns and labels:
[1] = tested on: Staphylococcus epidermidis; assay: In vitro broth dilution minimal inhibitory concentration (standard microdilution method); format: cell-based; details: Mueller-Hinton broth, 24-hour; for MIC: 24 h, read-out: Microdilution Broth MIC
Escherichia coli [2] = assay: as above; format: cell-based; details: Escherichia coli, Mueller-Hinton broth, 24-hour; for MIC: read-out: Microdilution Broth MIC
Escherichia coli [3] = assay: In vivo efficacy of orally administered compounds in mouse intraperitoneal infections; details: mouse i.p. Escherichia coli infection, oral, dosed at infection and 4 h post-infection, 7 days; for ED50: 168 h, read-out: ED50 (50 percent effective dose)
Protocol: (§1) Determinations of in vivo efficacy are performed by inoculating mice intraperitoneally with cultures of the infecting organism diluted to produce 90-100% mortality in control animals within twenty-four hours. The diluents used were trypticase soy broth for E. coli and 5% aqueous hog gastric mucin for Staphylococcus aureus infections. The compounds are dissolved or suspended in 0.25% aqueous Methocel® (Methocel®: Hydroxypropyl Methylcellulose E15 Premium, Dow Chemical Company) for oral administration or sterile distilled water containing 5% dimethylsulfoxide (Fisher Scientific Company, Fairlawn, N.J.) for subcutaneous administration. The mice are dosed at the time of infection and again at four hours post-infection. Mortality is recorded daily until test termination seven days post infection and the 50 percent effective dose, ED50, is calculated by the Reed-Muench method (Reed, L. G. and Muench, H., "A simple method of estimating fifty percent end points," American Journal of Hygiene, 27, 493-497 (1938).

Staphylococcus aureus [4] = assay: as above; details: mouse i.p. Staphylococcus aureus infection, oral, dosed at infection and 4 h post-infection, 7 days; for ED50: Staphylococcus aureus, po, 168 h, read-out: ED50 (50 percent effective dose)
Protocol: as §1

Staphylococcus aureus [5] = assay: In vivo efficacy of compounds administered subcutaneously in mouse intraperitoneal infections; details: sc, 168 h; mouse i.p. Staphylococcus aureus infection; subcutaneous; dosed at infection and 4 h post-infection; 7 days; read-out: ED50 (50 percent effective dose)
Protocol: as §1

SMILES | MIC [1] [µg/mL] | MIC (Escherichia coli [2]) [µg/mL] | ED50 (Escherichia coli [3]) [mg/kg] | ED50 (Staphylococcus aureus [4]) [mg/kg] | ED50 (Staphylococcus aureus [5]) [mg/kg] | Microdilution Broth MIC [1] [µg/mL] | Microdilution Broth MIC (Escherichia coli [2]) [µg/mL] | ED50 (50 percent effective dose) (Escherichia coli [3]) [mg/kg] | ED50 (50 percent effective dose) (Staphylococcus aureus [4]; 10080 min) [mg/kg]
CS(=O)(=O)c1ccc(N2CC(CN=[N+]=[N-])OC2=O)cc1 (single isomer, unassigned) [Example 2, (l)-5-Azidomethyl-3-[4-(methylsulfonyl)phenyl]-2-oxazolidinone] | 6.3 (≈ 21.3 µM) | > 100 | 52.6 | 7.3 | – | – | – | – | –
[N-]=[N+]=NCC1CN(c2ccc(S(N)(=O)=O)cc2)C(=O)O1 (single isomer, unassigned) [Example 3, (l)-4-[5-(Azidomethyl)-2-oxooxazolidin-3-yl]benzenesulfonamide] | 25 (≈ 84.1 µM) | > 100 | > 120 | 29.3 | – | – | – | – | –
CS(=O)(=O)c1ccc(N2CC(CN)OC2=O)cc1 (single isomer, unassigned) [Example 11, (l)-5-Aminomethyl-3-[4-(methylsulfonyl)phenyl]-2-oxazolidinone] | > 100 | > 100 | 47.4 | 29.9 | 16.4 | – | – | – | –
CS(=O)(=O)c1ccc(N2CC(CNC=O)OC2=O)cc1 (single isomer, unassigned) [Example 21, (l)-N-[3-[4-(Methylsulfonyl)phenyl]-2-oxooxazolidin-5-ylmethyl]formamide] | 6.3 (≈ 21.1 µM) | 100 (≈ 335 µM) | 30.3 | 7.3 | – | – | – | – | –
CC(=O)NCC1CN(c2ccc(S(C)(=O)=O)cc2)C(=O)O1 (single isomer, unassigned) [Example 23, (l)-N-[3-[4-(Methylsulfonyl)phenyl]-2-oxooxazolidin-5-ylmethyl]acetamide] | 3.2 (≈ 10.2 µM) | 25 (≈ 80 µM) | 14 | 3.3 | – | – | – | – | –
CSc1ccc(N2CC(CNC(C)=O)OC2=O)cc1 (single isomer, unassigned) [Example 31, (l)-N-[3-[4-(methylthio)phenyl]-2-oxooxazolidin-5-ylmethyl]acetamide] | 3.9 (≈ 13.9 µM) | > 200 | 19.6 | 3.5 | < 4.4 | – | – | – | –
CC(=O)NCC1CN(c2ccc(C(C)C)cc2)C(=O)O1 (single isomer, unassigned) [Example 51, (l)-N-[3-(4-isopropylphenyl)-2-oxooxazolidin-5-ylmethyl]acetamide] | 3.1 (≈ 11.2 µM) | > 200 | 62.9 | 6.4 | – | – | – | – | –
COC(=O)NCC1CN(c2ccc([S+](C)[O-])cc2)C(=O)O1 (single isomer, unassigned) [Example 121, (l)-N-[3-[4-(Methylsulfinyl)phenyl]-2-oxooxazolidin-5-ylmethyl]carbamic acid, methyl ester] | 18.8 (≈ 60.2 µM) | > 200 | 55.9 | 2.5 | – | – | – | – | –
CCC(=O)NCC1CN(c2ccc(S(C)(=O)=O)cc2)C(=O)O1 (stereo not drawn) [Example 27] | 6.3 (≈ 19.3 µM) | 50 (≈ 153 µM) | 37 | 8 | – | – | – | – | –
COC(=O)NCC1CN(c2ccc(C(C)C)cc2)C(=O)O1 (stereo not drawn) [Example 52] | – | – | – | – | – | 6.3 | > 200.0 | > 120.0 | 4.9
CC(=O)NCC1CN(c2ccc(C#N)cc2)C(=O)O1 (stereo not drawn) [Example 59] | 100 (≈ 386 µM) | > 200 | 88 | 4.3 | – | – | – | – | –
CC(=O)NCC1CN(c2ccc3c(c2)OCO3)C(=O)O1 (stereo not drawn) [Example 62] | 50 (≈ 180 µM) | > 200 | > 120 | 19.1 | – | – | – | – | –
C=CC(=O)NCC1CN(c2ccc(S(C)(=O)=O)cc2)C(=O)O1 (stereo not drawn) [Example 69] | 9.4 (≈ 29 µM) | 150 (≈ 462 µM) | 65.7 | 11.9 | – | – | – | – | –
CSc1ccc(N2CC(CNC(=O)C3CC3)OC2=O)cc1 (stereo not drawn) [Example 71] | 50 (≈ 163 µM) | > 200 | – | > 120 | 69.3 | – | – | – | –
CS(=O)(=O)c1ccc(N2CC(CNC(=O)C3CC3)OC2=O)cc1 (stereo not drawn) [Example 72] | 25 (≈ 73.9 µM) | 200 (≈ 591 µM) | – | > 120 | 15.2 | – | – | – | –
CC(=O)NCC1CN(c2ccc(C)cc2)C(=O)O1 (stereo not drawn) [Example 79] | 200 (≈ 806 µM) | > 200 | – | 99.8 | 85.1 | – | – | – | –
CCCCc1ccc(N2CC(CNC(=O)OC)OC2=O)cc1 (stereo not drawn) [Example 80] | 25 (≈ 81.6 µM) | > 200 | – | 64 | 42.3 | – | – | – | –
CSc1ccc(N2CC(CNC=O)OC2=O)cc1 (stereo not drawn) [Example 89] | 25 (≈ 93.9 µM) | > 200 | > 138 | 11 | – | – | – | – | –
C[S+]([O-])c1ccc(N2CC(CNC=O)OC2=O)cc1 (stereo not drawn) [Example 90] | 25 (≈ 88.6 µM) | > 200 | 98.4 | 11.3 | – | – | – | – | –
